Results on one compound are retold here after article PMC9905117, “Characterization of the metabolism of eupalinolide A and B by carboxylesterase and cytochrome P450 in human liver microsomes” (Frontiers in Pharmacology, 2023).

The assay has as its system Carboxylesterase. Put plainly: Inhibition of EA or EB hydrolysis in HLMs by carboxylesterase inhibitor BNPP. It counts as biochemical, human. Conditions: HLMs 0.5 g/L, no NADPH, 30 min. As to the method: To determine ideal BNPP concentration for inhibiting carboxylesterase activity in HLMs, an incubation system consisting of 100 mM phosphate buffer solution at pH 7.4, HLMs (0.5 g/L), MgCl2 (5 mM) and BNPP (0.5, 1, 1.5 and 2 mM) was prepared ([Zhuang et al., 2014]; [Wang Y. Q. et al., 2020]; [Zhang et al., 2022d]; [Jin et al., 2022]). The mixture was preincubated at 37°C for 5 min and the metabolic reaction was initiated by addition of EA or EB (at a final concentration of 10 μM). Positive control groups lacked BNPP while negative control groups contained deactivated HLMs. […] The above reaction was terminated by adding 200 µl of ice-cold stop solution at 30 min. Sample preparation and evaluation were as described in 2.2.1. All incubations were performed in triplicate. The percentage of EA or EB hydrolysis inhibition was calculated using the following Eq. 1: Inhibition%=1−∆substrate in the presence of chemical inhibitor/∆substrate in the absence of chemical inhibitor×100% (1)

The structures appear in SMILES notation.

Regarding `O=[N+]([O-])c1ccc(OP(=O)(O)Oc2ccc([N+](=O)[O-])cc2)cc1` [BNPP, bis(4-nitrophenyl) phosphoricacid], the “inhibitory percentage of EA hydrolysis” value (BNPP 0.5 mM, EA 10 μM) is 87.38%. For the same compound, the “inhibitory rate of EB hydrolysis” value (BNPP 2 mM, EB 10 μM) is recorded as 86.11%.
